Legend:
MEK = MEK phosphorylation (S217/221) in SKOV3 cells, immunoblot and densitometry; type: cell-based
Experimental: Cells were detached from their culture vessels by brief trypsinization, suspended in complete media and centrifuged at 250×g for 10 min at room temperature. The cell pellets were suspended in Dulbeco's phosphate buffered saline (DPBS) and re-centrifuged for a total of three washes. The cells were then re-suspended at 3.33E5/ml in 24 ml of either RPMI containing 0.5% BSA (Sigma Chem. Co. #A0336) (RPMI/BSA) or the conditioned media of growing NIH3T3 fibroblasts (10% FBS in DMEM) supplemented with 10 ng/ml vascular endothelial growth factor (VEGF) (CMN). The cells were then treated with or without 100 ug/ml soluble hyaluronic acid (HA; human umbilical, Calbiochem #385902) for 30 min at 37° C. under 5% CO2. Aliquots representing 2E6 cells were then plated into 10 cm culture dishes and A6 added to yield final concentrations of 0, 10, 100 and 1000 nM. The cells were cultured overnight (18 hr) at 37° C. under 5% CO2.
After 18 hr of treatment, the media were aspirated from the 10 cm dishes and saved. The plates were washed 3 times with 4 ml of ice-cold DPBS which were pooled with the reserved non-adherent cells. The non-adherent cells were centrifuged at 250×g for 10 min at 4° C., washed twice with cold DPBS, drained and lysed in 50 ul of cold RIPA buffer (ThermoScientific #89901) containing cocktails of broad spectrum phosphatase inhibitors (Calbiochem #524625; used at 2× final concentration) and protease inhibitors (Sigma #P8340) (RIPA/inh.). The 10 cm dishes were drained of remaining wash and the adherent cells lysed by scraping in 200 μL of cold RIPA/inh. For each test condition, the lysates of the non-adherent and adherent populations were combined, vortexed and then centrifuged at 14,000 rpm at 4° C. for 20 min. Aliquots of the cleared lysates were frozen at −80° C. immediately. A small aliquot was reserved for total protein analysis using a BCA Protein Assay Kit (Calbiochem #71285-3).
Samples representing 20 μg of total protein of each lysate were solubilized in the presence of 50 mM Tris pH 6.8, 10% glycerol, 2% SDS and 100 mM DTT for 5 min at 95° C. and then loaded onto 10-20% acrylamide gels (BioRad #345-0044, Tris-HCl, 1 mm, 26 well, 15 μL/well). Electrophoresis was performed using Laemli electrophoresis buffer (0.1% SDS, 25 mM Tris, 192 mM glycine) at 200 V, constant voltage, for one hour. Upon completion of electrophoresis, the proteins were transferred to Immun-Blot PVDF membranes (BioRad #162-0238) in ice-cold 20% methanol in 25 mM Tris, 192 mM glycine for 2 hr at 0.5 Amps, constant current/blotting apparatus. […]
The integrated densities (id) of the bands of interest were measured using Image J software (NIH). […]

A2780 cells = assay: Adhesion of A2780 cells to hyaluronic acid; type: cell-based; conditions: immobilized HA; 1 or 10 μM Å6
Experimental: In FIG. 12 A2780 cells were cultured overnight with or without 10 μM Å6 or 100 ng/ml PMA. The cells were then detached, washed and loaded with 20 μg/ml CFDA-SE for 30 min at 37° C. After washing, the cells were resuspended in PBS containing 10% FCS and triplicate aliquots representing 100,000 cells incubated for 30 min at room temperature with no additions, 1 or 10 μM Å6 or with 20 ng/ml IM7, a blocking anti-CD44 rat monoclonal antibody. The cells were then placed into microtiter wells that had been coated with 50 ul of 1 mg/ml HA overnight and blocked for 30 min with 10% FCS. The cells were allowed to adhere at room temperature for 30 min after which, the wells were decanted and washed 3 times. The fluorescence in each well was assessed (excit./emiss.: 460/536 nm) and the mean fluorescence values (+/standard deviation) of the triplicate determinations calculated.

Substance: acetyl-Lys-Pro-Ser-Ser-Pro-Pro-Glu-Glu-NH2 (Ac-KPSSPPEE-NH2) [Å6]
- CM/V-increased pMEK/MEK ratios (MEK; CM/V): potentiated this response
- pMEK/MEK (MEK; under all conditions): enhanced
- binding of A2780 cells to HA (A2780 cells): does not substantially modulate

From patent US8697629B2, “Modulation of intracellular signaling” (Angstrom Pharmaceuticals, Inc., priority 2010, dated 2014)
